# Experimental data published in patent US20130217735A1, “FUNGICIDAL COMPOSITIONS AND METHODS OF USE” (Agri-Food and BioSciences Institute, priority 2010, published 2013).
# Like-named read-outs stand apart in the source and are kept apart here.
# Assays:
# Phoma exigua = experiment: Example 7 sensitivity testing of potato tuber pathogens to thiabendazole derivatives; type: cell-based; conditions: isolate Phoma exigua 9.1, Trial B
# Experimental: (§1) In vitro tests of the IL thiabendazolium docusate were performed in comparison to the neutral fungicide using selected isolates of Fusarium spp., the cause of potato dry rot. F. coeruleum and F. culmorum are sensitive to thiabendazole whereas isolates of F. sambucinum are frequently resistant. Isolates of Phoma spp., the cause of gangrene, and Phytophthora erythroseptica, the cause of pink rot, were also tested. All except F. sambucinum ex SASA were isolated in a laboratory. F. sambucinum ex SASA was supplied by SASA (Science and Advice for Scottish Agriculture, Roddinglaw Road, Edinburgh, EH12 9F, UK).
# (§2) In each test three replicate plates for each organism per concentration were used and tests were repeated at least once.
# F. sambucinum = experiment: as above; type: cell-based; conditions: Trial B; for inhibition at 25 µM / inhibition at 250 µM: Fusarium sambucinum, read-out: Inhibition (%) of mycelial growth
# Experimental: as §1, §2
# F. coeruleum [1] = experiment: as above; type: cell-based; conditions: Trial B; for inhibition at 25 µM / inhibition at 250 µM: read-out: Inhibition (%) of mycelial growth
# Experimental: as §1, §2
# [2] = system: Phytophthora erythroseptica; experiment: as above; type: cell-based; conditions: for Inhibition (%) of mycelial growth / inhibition at 25 µM / inhibition at 250 µM: Trial B; for inhibition at 25 µM / inhibition at 250 µM: Phytophthora erythroseptica, read-out: Inhibition (%) of mycelial growth
# Experimental: as §1, §2
# F. culmorum [3] = experiment: as above; type: cell-based; conditions: isolate F. culmorum P13, Trial B
# Experimental: as §1, §2
# Phoma foveata = experiment: as above; type: cell-based; conditions: isolate Phoma foveata BL2 05 T3, Trial B
# Experimental: as §1, §2
# F. culmorum [4] = experiment: Example 5 agar plate mycelial growth test of TBZ derivatives; type: cell-based; conditions: isolate F. culmorum P13, Trial A
# P. erythroseptica = experiment: as above; conditions: Trial A; for Inhibition (%) of mycelial growth: isolate P. erythroseptica BL2/08 P31
# Experimental: (§3) Both TBZ docusate and TBZ stearate were tested at final concentrations of 250 μm and 25 μm in agar. To prepare the TBZ docusate stock solution for 250 μm, 0.155 g of TBZ docusate prepared according to Trial A was added to a 10 mL volumetric flask and was dissolved in 10 mL of ethanol. The solution was mixed thoroughly. To prepare the TBZ docusate stock solution for 25 μm, 1 ml of the above stock solution was pipetted into a second 10 mL flask and 10 mL ethanol was added. The solution was mixed thoroughly. To prepare the TBZ stearate stock solution for 250 μm, 0.121 g of TBZ stearate was added to a 10 mL volumetric flask and was dissolved in 10 mL ethanol. The solution was mixed thoroughly. To prepare the TBZ stearate stock solution for 25 μm, 1 mL of the 250 μm TBZ stearate stock solution was pipetted into a second 10 mL flask and 10 mL ethanol was added. The solution was mixed thoroughly.
# (§4) The agar was prepared and autoclaved. Potato dextrose agar (PDA) was used for the Fusarium species and Phytophthora erythroseptica and malt agar was used for the Phoma species. The agar was allowed to cool to 50° C. Each of the stock solutions was added to the agar at the rate of 10 mL stock solution per liter of agar to give the two final concentrations, for both TBZ stearate and docusate, in agar. Also prepared were a 1% ethanol control (10 mL per liter of agar) and an untreated agar as a second control. The plates were prepared in triplicate for each concentration.
# (§5) For each pathogen isolate tested, 3 plates of 250 μm/1, 3 plates of 25 μm/1, 3 plates of 1% ethanol, and 3 plates of untreated agar were inoculated using an agar plug cut with a no. 3 cork borer from the margin of an actively-growing culture on agar. The plates were incubated at an appropriate temperature (usually 18-20° C.) in darkness. The growth rate was monitored and assessed after 5-7 days. The growth was assessed by measuring colony diameters minus plug (two measurements at right-angles) per plate. The percent reduction was calculated with respect to the control.
# (§6) Pure thiabendazole (TBZ; 0.5 g) obtained from MSD Agvet (Rahway, N.J.) was dissolved in water (10 mL) by adding the minimum required volume (c. 0.5 mL) of hypophosphorous acid and heating gently with stirring, then made up to 100 mL with water to give a stock solution (25 mM). TBZ docusate (0.155 g) or TBZ stearate (0.121 g) was dissolved in ethanol (100 ml) to give stock solutions (25 mM). A ten-fold dilution of each of these stock solutions was prepared (in water for TBZ and in ethanol for TBZ docusate and stearate). […] In addition, agar with 1% v/v ethanol and unamended agar was prepared (ethanol and unamended controls). The agar was poured into Petri plates (9 cm) and allowed to set.
# (§7) Isolates of the appropriate potato tuber pathogens were grown on PDA for Fusarium spp. and Phytophthora erythroseptica or on MA for Phoma spp. Each isolate to be tested was inoculated onto three replicate plates of the two concentrations of each compound and onto ethanol and unamended agar controls using plugs (6 mm diameter) cut from the margins of actively growing cultures. Plates were incubated in darkness at 20° C. and mycelial growth measured (two measurements at right-angles for each plate) after 5-7 days (depending on the growth rates).
# P. exigua = experiment: as above; conditions: Trial A; for Inhibition (%) of mycelial growth: isolate P. exigua 9.1
# Experimental: as §3, §4, §5, §6, §7
# F. sulphureum = experiment: as above; conditions: 5-7 days, TBZ docusate Trial A; for Inhibition (%) of mycelial growth: isolate F. sulphureum ex SASA
# Experimental: as §3, §4, §5, §6, §7
# F. coeruleum [5] = experiment: as above; conditions: Trial A; for Inhibition (%) of mycelial growth: isolate F. coeruleum ex B7/06 T8
# Experimental: as §3, §4, §5, §6, §7
# P. foveata = experiment: as above; conditions: Trial A; for Inhibition (%) of mycelial growth: isolate P. foveata BL2 05 T3
# Experimental: as §3, §4, §5, §6, §7
# [6] = isolate F. sambucinum L'gall 11, 25 μM in agar
# [7] = isolate F. sambucinum L'gall 11, 250 μM in agar
# [8] = isolate F. sambucinum L'gall 53, 25 μM in agar
# [9] = isolate F. sambucinum L'gall 53, 250 μM in agar
# [10] = isolate F. sambucinum ex SASA, 25 μM in agar
# [11] = isolate F. sambucinum ex SASA, 250 μM in agar, vs 1% ethanol control
# [12] = isolate F. coeruleum ex B7/06 T8, 25 μM in agar
# [13] = isolate F. coeruleum ex B7/06 T8, 250 μM in agar
# [14] = isolate F. coeruleum ex B16/08 P31, 25 μM in agar
# [15] = isolate F. coeruleum ex B16/08 P31, 250 μM in agar
# [16] = isolate Phytophthora erythroseptica BL2/08 P31, 25 μM in agar
# [17] = isolate Phytophthora erythroseptica BL2/08 P31, 250 μM in agar
# [18] = isolate Phytophthora erythroseptica Rooster Eire, 25 μM in agar
# [19] = isolate Phytophthora erythroseptica Rooster Eire, 250 μM in agar
smiles,measurement,setting,value
"CCCCCCCCCCCCCCCCCC(=O)O.c1ccc2[nH]c(-c3cscn3)nc2c1 [TBZ stearate, thiabendazolium stearate]",Inhibition (%) of mycelial growth,Phoma exigua; 25 μM in agar,95%
same,Inhibition (%) of mycelial growth,Phoma exigua; 250 μM in agar,99%
same,Inhibition (%) of mycelial growth,F. sambucinum; [6],10%
same,Inhibition (%) of mycelial growth,F. sambucinum; [7],82%
same,Inhibition (%) of mycelial growth,F. sambucinum; [8],20%
same,Inhibition (%) of mycelial growth,F. sambucinum; [9],82%
same,Inhibition (%) of mycelial growth,F. sambucinum; [10],24%
same,Inhibition (%) of mycelial growth,F. sambucinum; [11],89%
same,Inhibition (%) of mycelial growth,F. coeruleum [1]; [12],99%
same,Inhibition (%) of mycelial growth,F. coeruleum [1]; [13],99%
same,Inhibition (%) of mycelial growth,F. coeruleum [1]; [14],100%
same,Inhibition (%) of mycelial growth,F. coeruleum [1]; [15],100%
same,activity against P. erythroseptica compared with thiabendazole alone,"[2]; in words, Table 5",did not enhance the activity
same,Inhibition (%) of mycelial growth,[2]; [16],10%
same,Inhibition (%) of mycelial growth,[2]; [17],54%
same,Inhibition (%) of mycelial growth,[2]; [18],11%
same,Inhibition (%) of mycelial growth,[2]; [19],34%
same,Inhibition (%) of mycelial growth,F. culmorum [3]; 25 μM in agar,100%
same,Inhibition (%) of mycelial growth,F. culmorum [3]; 250 μM in agar,100%
same,Inhibition (%) of mycelial growth,Phoma foveata; 25 μM in agar,97%
same,Inhibition (%) of mycelial growth,Phoma foveata; 250 μM in agar,99%
"c1ccc2[nH]c(-c3cscn3)nc2c1 [TBZ stearate, thiabendazolium stearate]",Inhibition (%) of mycelial growth,F. culmorum [4]; 25 μM in agar,100%
same,Inhibition (%) of mycelial growth,F. culmorum [4]; 250 μM in agar,100%
same,Inhibition (%) of mycelial growth,P. erythroseptica; 25 μM in agar,2%
same,Inhibition (%) of mycelial growth,P. erythroseptica; 250 μM in agar,69%
same,Inhibition (%) of mycelial growth,P. exigua; 25 μM in agar,93%
same,Inhibition (%) of mycelial growth,P. exigua; 250 μM in agar,98%
same,Inhibition (%) of mycelial growth,F. sulphureum; 25 μM in agar,25%
same,Inhibition (%) of mycelial growth,F. sulphureum; 250 μM in agar,90%
same,Inhibition (%) of mycelial growth,F. coeruleum [5]; 25 μM in agar,98%
same,Inhibition (%) of mycelial growth,F. coeruleum [5]; 250 μM in agar,98%
same,Inhibition (%) of mycelial growth,P. foveata; 25 μM in agar,96%
same,Inhibition (%) of mycelial growth,P. foveata; 250 μM in agar,99%
"c1ccc2[nH]c(-c3cscn3)nc2c1 [TBZ, thiabendazole, reference compound]",inhibition at 25 µM,"F. culmorum [4]; Fusarium culmorum, 25 μM in agar",100%
same,inhibition at 250 µM,"F. culmorum [4]; Fusarium culmorum, 250 μM in agar",100%
same,inhibition at 250 µM,"P. erythroseptica; Phytophthora erythroseptica, read-out: Inhibition (%) of mycelial growth, isolate P. erythroseptica BL2/08 P31, 250 μM in agar",76%
same,Inhibition (%) of mycelial growth,P. erythroseptica; 25 μM in agar,9%
same,inhibition at 25 µM,"P. exigua; Boeremia inoxydabilis, read-out: Inhibition (%) of mycelial growth, isolate P. exigua 9.1, 25 μM in agar",92%
same,inhibition at 250 µM,"P. exigua; Boeremia inoxydabilis, read-out: Inhibition (%) of mycelial growth, isolate P. exigua 9.1, 250 μM in agar",100%
same,inhibition at 25 µM,"Phoma exigua; 25 μM in agar, read-out: Inhibition (%) of mycelial growth",95%
same,inhibition at 250 µM,"Phoma exigua; 250 μM in agar, read-out: Inhibition (%) of mycelial growth",100%
same,inhibition at 25 µM,F. sambucinum; [6],8%
same,inhibition at 250 µM,F. sambucinum; [7],76%
same,inhibition at 25 µM,F. sambucinum; [8],19%
same,inhibition at 250 µM,F. sambucinum; [9],93%
same,inhibition at 25 µM,F. sambucinum; [10],22%
same,inhibition at 250 µM,F. sambucinum; [11],89%
same,inhibition at 25 µM,F. coeruleum [1]; [12],99%
same,inhibition at 250 µM,F. coeruleum [1]; [13],99%
same,inhibition at 25 µM,F. coeruleum [1]; [14],100%
same,inhibition at 250 µM,F. coeruleum [1]; [15],100%
same,inhibition at 25 µM,[2]; [16],4%
same,inhibition at 250 µM,[2]; [17],51%
same,inhibition at 25 µM,[2]; [18],8%
same,inhibition at 250 µM,[2]; [19],31%
same,inhibition at 25 µM,"F. culmorum [3]; Fusarium culmorum, 25 μM in agar, read-out: Inhibition (%) of mycelial growth",100%
same,inhibition at 250 µM,"F. culmorum [3]; Fusarium culmorum, 250 μM in agar, read-out: Inhibition (%) of mycelial growth",100%
same,inhibition at 25 µM,"Phoma foveata; Boeremia foveata, 25 μM in agar, read-out: Inhibition (%) of mycelial growth",98%
same,inhibition at 250 µM,"Phoma foveata; Boeremia foveata, 250 μM in agar, read-out: Inhibition (%) of mycelial growth",100%
same,inhibition at 25 µM,"F. sulphureum; read-out: Inhibition (%) of mycelial growth, isolate F. sulphureum ex SASA, 25 μM in agar",17%
same,inhibition at 250 µM,"F. sulphureum; read-out: Inhibition (%) of mycelial growth, isolate F. sulphureum ex SASA, 250 μM in agar",87%
same,inhibition at 25 µM,"F. coeruleum [5]; read-out: Inhibition (%) of mycelial growth, isolate F. coeruleum ex B7/06 T8, 25 μM in agar",99%
same,inhibition at 250 µM,"F. coeruleum [5]; read-out: Inhibition (%) of mycelial growth, isolate F. coeruleum ex B7/06 T8, 250 μM in agar",98%
same,inhibition at 25 µM,"P. foveata; Boeremia foveata, read-out: Inhibition (%) of mycelial growth, isolate P. foveata BL2 05 T3, 25 μM in agar",98%
same,inhibition at 250 µM,"P. foveata; Boeremia foveata, read-out: Inhibition (%) of mycelial growth, isolate P. foveata BL2 05 T3, 250 μM in agar",100%
